Measured values published in patent US10682320B2, “Method for inhibiting osteoclast development” (West Virginia University, priority 2012, dated 2020).

Assays:
Type in all cases: cell-based
[1] = target: T1, STIM I/Orai I interaction (Homo sapiens, UniProt Q13586); test: 2-APB-induced STIM I ct translocation to plasma membrane; details: 2-APB 50 μM, as early as 5 seconds
T1 construct: the cytosolic fragment of STIM I (STIM 1 ct); expressed in transfected cells
Method: HEK293 cells, maintained in DMEM with 10% FBS, were transfected with YFP-STIM I using Lipofectamine 2000 (Invitrogen, Carlsbad, Calif.) for 5 h (37° C.; 5% CO2) followed by a 24-h recovery. Cells were placed in 140 mM NaCl, 5 mM KCl, 1 mM MgCl2, 10 mM glucose, 15 mM HEPES, 0.1% BSA, 2 mM CaCl2 and analyzed by confocal microscopy for STIM I puncta formation using a Nikon phase-fluorescence microscope with CCD detectors (Diagnostic instruments, Sterling Heights, Mich.). Phase or transmitted light microscopy used 10-40× objectives and red, green, and blue filters to assemble color images. Fluorescence images used 1.4 NA 40× oil objectives. Red fluorescence used excitation at 530-560 nm, a 575 nm dichroic minor, and 580-650 nm emission filter. Transfection data were analyzed using Nikon NIS Elements Imaging Software. The effect of DCPA on STIM I/Orai I association was determined in wild-type HEK293 cells transfected with STIM I-YFP as described in Wang Y, Deng X, Zhou Y, Hendron E, Mancarelia S, Ritchie M F, Tang X D, Baba Y, Kurosaki T, Mori Y, Soboloff J, Gill DL, “STIM protein coupling in the activation of Orai channels”, Proc Natl Acad Sci USA, Vol. 106, pages 7391-7396, 2009. Experiments were performed on a Leica DMI 6000B fluorescence microscope controlled by Slidebook Software (Intelligent Imaging Innovations, Denver, Colo.).

CRAC channel [2] = target: T2, CRAC channel (Homo sapiens, UniProt Q13586); test: CRAC channel activity as measured by intracellular calcium influx; details: for effect on intracellular calcium influx and toxicity in relation to CRAC channel inhibition: DCPA metabolites
T2 sequence (Q13586 23-685): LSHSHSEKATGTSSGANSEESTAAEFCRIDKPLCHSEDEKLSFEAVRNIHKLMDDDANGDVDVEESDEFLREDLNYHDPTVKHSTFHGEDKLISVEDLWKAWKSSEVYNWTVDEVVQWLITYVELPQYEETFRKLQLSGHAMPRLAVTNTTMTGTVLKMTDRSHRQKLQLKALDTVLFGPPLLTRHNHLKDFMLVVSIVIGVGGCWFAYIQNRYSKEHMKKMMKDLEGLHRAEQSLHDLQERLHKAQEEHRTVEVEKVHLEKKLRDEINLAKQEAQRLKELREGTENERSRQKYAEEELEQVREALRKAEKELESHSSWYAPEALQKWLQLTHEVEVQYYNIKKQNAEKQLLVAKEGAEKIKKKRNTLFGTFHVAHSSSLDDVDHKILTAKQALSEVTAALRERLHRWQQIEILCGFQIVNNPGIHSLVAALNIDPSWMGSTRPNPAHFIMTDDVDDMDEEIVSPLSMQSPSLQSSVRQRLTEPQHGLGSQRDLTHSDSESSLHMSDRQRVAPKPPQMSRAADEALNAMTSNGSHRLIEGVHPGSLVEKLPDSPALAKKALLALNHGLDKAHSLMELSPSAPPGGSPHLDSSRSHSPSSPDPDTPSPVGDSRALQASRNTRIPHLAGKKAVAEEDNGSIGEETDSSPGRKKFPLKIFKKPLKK
Source text: The metabolism of DCPA by acylamidase produces DCA as mentioned above. DCA is then metabolized to N—OH-DCA and 6-OH-DCA. Both N—OH-DCA and 6-OH-DCA contribute to the systemic toxicity associated with in vivo administration of DCPA. […] Thus, the CRAC channel inhibitory activity of DCPA is not attributable to any of these toxic metabolites. Given that the CRAC channel inhibition associated with DCPA was not due to the more toxic metabolites, the present invention discloses haloanilide compositions of Formula I, and salts thereof that are not metabolized to DCA but that have similar CRAC channel inhibitory qualities of DCPA:
[drawing 7] wherein X is either chlorine or bromine, Y is either hydrogen or an alkyl group having a carbon chain length from 1 to 5 carbon atoms, and R is an alkyl group having a carbon chain length from 1 to 5 carbon atoms, except wherein X is not chlorine when Y is hydrogen and R is an ethyl group. Synthesis routes for N-(3,4-dibromophenyl)propanamide [also referred to as “DBPA” or “N-(3,4-bibromophenyl)propionamide”], N-(3,4-dichlorophenyl)-N-methylpropanamide [also referred to as “N-Methyl Propanil”; or “N-Methyl-DCPA”; or “NMP”; or “NM Propanil”; or “N-(3,4-dichlorophenyl)-N-methylpropionamide”; or “N,N-Methyl, Propyl-CA” (CA=carboxamide)], 3,4-dichloro-N-methyl-N-isobutyramide [also referred to as “N-(3,4-dichlorophenyl)-N,2-dimethylpropanamide”; or “DNMI”], N-(3,4-dichlorophenyl)-2-dimethylpropanamide, N-(3,4-dichlorophenyl)isobutyramide [also referred to as “DNI” or “N-Isobutyl-CA” (CA=carboxamide)], and N-(3,4-dichlorophenyl)-N-methylisobutyramide [also referred to as “N,N-Me, Isobutyl-CA” (CA=carboxamide)]. Each of the haloanilide compositions of this invention have undergone in vitro toxicity testing on Jurkat cells—this is a T cell line that is sensitivity to toxic effects and thus, was used to determine the effect of the compounds on viability. Each of the compositions of Formula I are capable of inhibiting CRAC channel activity as measured by intracellular calcium influx. […] FIGS. 4 and 5 show chemical structures of preferred haloanilide compositions of this invention.

CRAC channel [3] = target: T2, CRAC channel; test: CRAC channel activity by Fura-2 fluorescence in Jurkat cells after thapsigargin; set-up: endogenous in cells; host or cells: Jurkat cells; details: 100 uM, 10 minutes before thapsigargin
Method: Ratiometric imaging of intracellular Ca^2+ using fura-2 was as described (see, Zhou et al., 2009 above). Briefly, cells on coverslips, in cation safe solution (107 mM NaCl, 7.2 mM KCl, 1.2 mM MgCl2, 11.5 mM glucose, 20 mM HEPES-NaOH, pH 7.2) were loaded with fura-2 acetoxymethyl ester (2 μM) for 30 min at 24° C. Cells were washed and fluorescent probe was allowed to de-esterify for 30 min. From signal remaining after saponin permeabilization, ˜85% of the dye was confined to the cytoplasm (see, Ma H-T, Patterson R L. van Rossum D B. Birnbaumer L, Mikoshiba K, Gill D L, “Requirement of the inositol trisphosphate receptor for activation of store-operated Ca^2+ channels”, Science, Vol. 287, pages 1647-1651, 2000). Ca^2+ measurements were made using a Leica DMI 6000B fluorescence microscope controlled by Slidebook Software. Fluorescence emission at 505 nm was monitored while alternating between 340 and 380 nm excitation wavelengths at a frequency of 0.67 Hz; intracellular Ca^2+ measurements are shown as 340/380 nm emission ratios obtained from groups (35-45) of single cells. Measurements shown are representative a minimum of three independent experiments.
N-(3,4-dibromophenyl)propanamide]. Jurkat cells, a T cell line that is very sensitive to DCPA, was cultured with the indicated compounds, DCPA, DBPA, and ethanol (EtOH). CRAC channel activity was monitored using Fura-2 fluorescence using standard known techniques. Cells were incubated in each composition at 100 uM for 10 minutes prior to addition of the SERCA inhibitor thapsigargin (Tg) to induce SOCe. Decreased CRAC channel activity is clearly evident with DCPA and DBPA.
Jurkat cells, a T cell line that is very sensitive to DCPA, was cultured with the indicated compositions of the present invention, namely, DNI, NM Propanil, and DNMNI. CRAC channel activity was monitored using Fura-2 fluorescence using standard known techniques. Cells were incubated in each composition at 100 uM for 10 minutes prior to addition of the SERCA inhibitor thapsigargin (Tg) to induce SOCe. Decreased CRAC channel activity is clearly evident with each of the compositions of the present invention. […] Each of the compositions of this invention achieve the results achieved with the known DCPA but without the burden of toxicity of DCPA that would accompany further metabolism of DCPA.

[4] = tested on: human monocytes differentiating into osteoclasts; test: Human osteoclast differentiation in vitro (multinucleation, TRAP); details: 10 and 100 μM, 8 days after RANKL
Method: Human monocytes were isolated from normal buffy coat cells (60-80 ml) obtained with approval of institutional review boards by separation from donor blood, the white-cell depleted blood retained for clinical use. Human monocyte culture and differentiation were as reported (see, Yaroslayskly B B, Zhang Y, Kalla S E, Garcia P V, Sharrow A C, Li Y, Zaidi M, Wu C, Blair H C, “NO-dependent osteoclast motility: Reliance on cGMP-dependent protein kinase I and VASP”, J Cell Sci I, Vol. 18, pages 5479-5487, 2005). Briefly, human monocytes cells were isolated from buffy coat on ficoll lymphocyte separation media and cultured at ˜6×10^5 cells per cm^2 in monocyte maintenance medium, Dulbecco's modified essential medium (DMEM) with 20 ng/ml of human m-CSF and 10% FBS, for 24 hours (h). After 24 h in culture, the medium was changed to osteoclast differentiation medium containing in addition of human 50 ng/ml of RANKL, with the additional inhibitors or activators as specified in results. Human osteoclast cultures were generally maintained for a minimum of 7 days before analysis, or longer times as specified in results.
The effect of DCPA on human osteoclast differentiation 8 days after addition of RANKL was evaluated.

[5] = tested on: Store-Operated Calcium Entry (SOCE); test: Store-Operated Calcium Entry (SOCE) inhibition dose response (FIG. 10)

T1 sequence (Q13586 235-685 limits assumed): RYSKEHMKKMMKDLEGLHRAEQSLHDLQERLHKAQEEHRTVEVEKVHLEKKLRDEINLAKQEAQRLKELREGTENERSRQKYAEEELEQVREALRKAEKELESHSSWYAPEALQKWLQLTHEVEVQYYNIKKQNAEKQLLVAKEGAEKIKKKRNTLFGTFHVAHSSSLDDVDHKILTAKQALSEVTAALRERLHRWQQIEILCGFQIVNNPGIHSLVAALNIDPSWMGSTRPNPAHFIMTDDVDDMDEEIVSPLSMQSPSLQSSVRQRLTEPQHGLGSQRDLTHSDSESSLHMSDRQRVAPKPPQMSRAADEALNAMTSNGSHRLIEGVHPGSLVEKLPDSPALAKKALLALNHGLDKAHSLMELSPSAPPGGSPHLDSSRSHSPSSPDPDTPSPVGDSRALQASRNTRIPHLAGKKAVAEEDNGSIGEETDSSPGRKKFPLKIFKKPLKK

Structure (SMILES) | effect on intracellular calcium influx and toxicity in relation to CRAC channel inhibition (CRAC channel [2]) | CRAC channel activity (CRAC channel [3]) | other results
NCCOB(c1ccccc1)c1ccccc1 [2-APB, 2-aminoethoxydiphenylborate] |  |  | translocation of STIM I ct towards the PM [1]: significant translocation
Nc1cc(Cl)c(Cl)cc1O [6-OH-DCA] | not associated with CRAC channel inhibition |  | 
CCC(=O)Nc1ccc(Br)c(Br)c1 [DBPA, N-(3,4-dibromophenyl)propanamide] |  | Decreased | 
Nc1ccc(Cl)c(Cl)c1 [DCA, dichloroaniline] | not associated with CRAC channel inhibition |  | 
CCC(=O)Nc1ccc(F)c(F)c1 [DFPA, 3,4-difluoropropioanilide] |  |  | number of multinucleated cells [4]: no significant effect
CC(C)C(=O)Nc1ccc(Cl)c(Cl)c1 [DNI, N-(3,4-dichlorophenyl)isobutyramide] |  | Decreased | 
CC(C)C(=O)N(C)c1ccc(Cl)c(Cl)c1 [DNMNI, N-(3,4-dichlorophenyl)-N-methylisobutyramide] |  | Decreased | 
CCC(=O)N(C)c1ccc(Cl)c(Cl)c1 [NMP, N-(3,4-dichlorophenyl)-N-methylpropanamide] |  | Decreased | inhibition of CRAC channel activity as measured by intracellular calcium influx (CRAC channel [2]): effective at lower concentrations; IC50 ([5]; FIG. 10B): 104 µM; dose response compared with known DCPA ([5]; doses 3 μM to 1 mM, FIG. 10A): at least equal
ONc1ccc(Cl)c(Cl)c1 [N—OH-DCA] | not associated with CRAC channel inhibition |  | 
